Legend:
Candida albicans = details: data of US 4.420.474 Table I; cited from earlier work
[1] = test system: Candida tropicalis CECT 1440; experiment: In vitro activity against Candida tropicalis CECT 1440 (MIC and RIF); assay type: cell-based; details: for RIF: Relative Inhibition Factor, Candida tropicalis CECT 1440; for activity compared with Clotrimazole: applicant's own tests, illustrated by the table of Example 3
Source text: In vitro activity against Candida tropicalis CECT 1440.
This pharmacological test allows a comparison of the activities of the two products of the present invention (WAS 2160 and WAS 2169) with the activities of the structurally closest described product (SQ 80896), the structurally closest commercial product (Clotrimazole) and the analogue product without the seven-membered ring (WAS 2162). MIC (Minimum Inhibitory Concentration, in […]) and RIF (Relative Inhibition Factor) parameters were determined in a standard way, obtaining the results of the table (WAS 2162 is the nitric acid salt of 1-[(2,4-dichlorophenyl)phenylmethyl]-1H-imidazole, prepared at our laboratory).

[2] = test system: Malassezia furfur (Pytiosporum); experiment: In vitro test against 30 strains of Malassezia furfur; assay type: cell-based; details: for % of strains with PIC lower than 40 »g/mL: PIC = Partial Inhibitory Concentration: growth inhibition greater than 50% in relation to controls
Method: In vitro test against 30 strains of Malassezia furfur (Pytiosporum)
A double-blind comparative test was carried out with WAS 2160, Clotrimazole and Bifonazole, with the results of the table. (PIC = Partial Inhibitory Concentration: growth inhibition greater than 50% in relation to controls).

candidiosis = experiment: In vivo antifungal activity against candidiosis; details: guinea pig candidiosis, double-blind
Method: In vivo test of antifungal activity against candidiosis in guinea pig
A double-blind comparative test was carried out with WAS 2160 and Clotrimazole, with the following results: […]

C. tropicalis = experiment: In vitro MIC, progressive double dilutions in liquid medium; assay type: cell-based; set-up: unit not given here; details: Sabouraud broth with gentamycin
Method: (§1) In vitro ativity against 116 strains of yeasts and 45 strains of dermatophytes
(§2) MIC-s were determined by the method of progressive double dilutions in a liquid medium, using sterile microplates. The culture medium used was the Sabouraud broth with gentamycin (100 mg/1000 mL).

C. albicans = experiment: as above; assay type: cell-based; set-up: unit not given here; details: Sabouraud broth with gentamycin
Method: as §1, §2

C. parapsilosis = experiment: as above; assay type: cell-based; set-up: unit not given here; details: Sabouraud broth with gentamycin
Method: as §1, §2

M. gypseum = experiment: as above; assay type: cell-based; set-up: unit not given here; details: Sabouraud broth with gentamycin
Method: as §1, §2

C. Krusei = experiment: as above; assay type: cell-based; details: Sabouraud broth with gentamycin
Method: as §1, §2

Microsporum canis = experiment: as above; assay type: cell-based; details: Sabouraud broth with gentamycin
Method: as §1, §2

T. tonsurans = experiment: as above; assay type: cell-based; details: Sabouraud broth with gentamycin
Method: as §1, §2

Epidermophyton floccosum = experiment: as above; assay type: cell-based; details: Sabouraud broth with gentamycin
Method: as §1, §2

Trich. rubrum = experiment: as above; assay type: cell-based; details: Sabouraud broth with gentamycin
Method: as §1, §2

Trichoph. mentagrophytes = experiment: as above; assay type: cell-based; details: Sabouraud broth with gentamycin
Method: as §1, §2

Torulopsis glabrata = experiment: as above; assay type: cell-based; details: Sabouraud broth with gentamycin
Method: as §1, §2

[3] = test system: Trichophyton mentagrophytes; experiment: In vivo protection against experimentally-induced dermatophytosis; details: guinea pig, double-blind
Method: In vivo tests of protection against experimentally-induced dermatophytosis in the guinea pig, caused by Trichophyton mentagrophytes.
Two double-blind comparative tests were carried out, with the following results: […]

[4] = Tolerance test in rabbits (eye, skin, vagina); assay type: in vivo; details: skin and vagina
Source text: Tolerance test of WAS 2160 in rabbits

SMILES | RIF [1] | activity compared with Clotrimazole [1] | % of strains with MIC lower than 40 »g/mL [2] | % of strains with PIC lower than 40 »g/mL [2] | % of animals with total clin. healing (candidiosis) | % of negative cultures after treatment (candidiosis) | MIC (C. tropicalis) | MIC (C. albicans) | MIC (C. parapsilosis) | MIC (M. gypseum) | MIC (C. Krusei) | MIC (Microsporum canis) | MIC (T. tonsurans) | MIC (Epidermophyton floccosum) | MIC (Trich. rubrum) | MIC (Trichoph. mentagrophytes) | MIC (Torulopsis glabrata) | % of negative cultures after treatment ([3]; test II) | % of negative cultures after treatment ([3]; test I) | further results
Clc1ccc2c(c1)C(n1ccnc1)c1ccccc1CC2 (centres unmarked) [SQ 80896, 1-(3-chloro-10,11-dihydro-5H-dibenzo[a,d]dicyclohepten-5-yl)-1H-imidazole] | 83.96 | considerably less active than Clotrimazole |  |  |  |  |  |  |  |  |  |  |  |  |  |  |  |  |  | activity compared with Clotrimazole (MIC parameters) (Candida albicans): considerably less active than Clotrimazole
Clc1ccccc1C(c1ccccc1)(c1ccccc1)n1ccnc1 [Clotrimazole] | 43.05 |  | 33% | 56% | 30% | 100% | 3,51 | 2,43 | 2,36 | 0,97 | 6,18 | 2,69 | 0,90 | 0,09 | 0,31 | 0,23 | 6,29 |  |  | 
Clc1cc(Cl)c2c(c1)C=Cc1ccccc1C2n1ccnc1.O=[N+]([O-])O (racemic) [WAS 2169, 1-(2,4-dichloro-5H-dibenzo[a,d]cyclohepten-5-yl)-1H-imidazole nitrate] | 54.94 |  |  |  |  |  | 7,58 | 1,98 | 1,08 | 0,08 | 5,61 | 0,06 |  |  | 0,30 | 0,17 | 6,33 | 81,8% |  | 
c1ccc(-c2ccc(C(c3ccccc3)n3ccnc3)cc2)cc1 (centres unmarked) [Bifonazole] |  |  | 83% | 50% |  |  | 72,67 | 12,10 | 58,97 | 6,25 | 50,50 | 3,12 | 1,20 | 0,02 | 1,19 | 1,48 | 14,88 | 0 % (test II) | 39 % (test I) | 
Clc1ccc(C(c2ccccc2)n2ccnc2)c(Cl)c1 (centres unmarked) [WAS 2162, 1-[(2,4-dichlorophenyl)phenylmethyl]-1H-imidazole] | 94.47 | considerably less active than Clotrimazole |  |  |  |  |  |  |  |  |  |  |  |  |  |  |  |  |  | 
Clc1cc(Cl)c2c(c1)CCc1ccccc1C2n1ccnc1.O=[N+]([O-])O (racemic) [WAS 2160, 1-(2,4-Dichloro-10,11-dihydro-5H-dibenzo[a,d]cyclohepten-5-yl)-1H-imidazole nitrate] | 39.31 |  | 40% | 60% | 60% | 100% | 3,44 | 2,25 | 2,06 | 1,05 | 3,17 | 0,39 | 0,19 | 0,32 | 0,54 | 0,17 | 1,25 |  | 50% | Tolerance [4]: innocuous and totally tolerated by the eye, the skin and the vagina
